The subject of assay [1] is A549. Nature of the assay: CCK-8 anti-tumor activity, IC50. Format: cell-based. The following applies: Homo sapiens, 72 hours. Here is the method:
(§1) Take cells in logarithmic growth phase for experiments. Digest and count the cells, then make them into a cell suspension in 1×10^5 cells/mL, next seed the cell suspension in a 96-hole plate (100 μL per hole), then place the plate in a 5% CO2 incubator at 37° C. to be incubated for 24 hours. Add a subject with a corresponding concentration into each hole, and concurrently set up a negative control group and a blank group, each of which has 3 holes. After having placed the plate in the incubator for 72 hours, observe the morphologies of cells in each group under a microscope, then add a 10 μL CCK8 solution to each hole, and continue incubating the cells in the incubator for 4 hours, measure the absorbance value at 450 nm. In the test, take cells with 8 concentration gradients respectively, then measure the inhibition rate corresponding to each concentration. Use the GraphPad Prism 5.0 statistical software to treat data, use the t-test software to make a comparison between two groups, and use the One-way Anova (Dunnett) software to make a comparison among multiple groups. if P<0.05, the results have statistical significance, and then calculate the IC50 value.

Assay [2] concerns Hela. Nature of the assay: CCK-8 anti-tumor activity, IC50. Format: cell-based. The following applies: Homo sapiens. Here is the method:
as §1

Assay [3] concerns HepG2. Nature of the assay: CCK-8 anti-tumor activity, IC50. Format: cell-based. The following applies: Homo sapiens. The protocol: as §1
Assay [4] has as its system SW480. Nature of the assay: CCK-8 anti-tumor activity, IC50. Conditions: Homo sapiens, 72 hours. Format: cell-based. Here is the method:
as §1

In assay [5] the test system is human hepatoma cell HepG2 xenotransplantation tumor. Description: Gavage administration, inhibition of xenografted tumors of tumor-bearing nude mice. The format is in vivo. Conditions: 14 times; for Tumor weight: day 15; for Inhibition rate(%): tumor weight vs model group. An excerpt:
Inoculate the human hepatoma cell strain HepG2 subcutaneously at an armpit of a nude mouse, as to establish a human hepatoma cell HepG2 xenotransplantation tumor model. Take the cells HepG2 in logarithmic growth phase, under sterile conditions, inoculate the cells subcutaneously at right armpits of 55 nude mice. Measure the diameter of the xenograft tumors by a vernier caliper, when the tumors grow to about 100 mm^3, choose 48 tumor-bearing nude mice having an uniform tumor size in a good growth status, then randomly divide them into 8 groups, each of which has 6 mice, namely a model group, a 7a low-dosage group (50 mg/kg), a 7a medium-dosage group (100 mg/kg), a 7a high-dosage group (150 mg/kg), and a sorafenib group (50 mg/kg). Share an isovolumic solvent among the mice in the model group through gavage, administer drugs through gavage once a day. Administer drugs in the 7a low-dosage group, the 7a medium-dosage group, and the 7a high-dosage group once a day at 50 mg/kg, 100 mg/kg, and 150 mg/kg, respectively, to reach 14 times administration in total. Administer drugs in the sorafenib group once a day at 50 mg/kg, to reach 14 times administration in total. Dynamically observe the anti-tumor effect of the subjects by adopting the method of measuring tumor diameters. Measure the tumor diameter on alternate days, while weigh the body weight of nude mice. On the 15th day, kill the mice, then pick away tumor lumps surgically and weigh them, and preserve the tumor tissue in a liquid nitrogen tank, next calculate the tumor inhibition rate (%). Tumor inhibition rate (%)= (tumor weight in the model group-tumor weight in the administration group)/tumor weight in the model group×100%.

In assay [6] the test system is HepG2 cell strain. Nature of the assay: In-vitro inhibitory activity against proliferation of tumor cells (CCK8, inhibition rate). The format is cell-based, human. Conditions: for inhibition at 1 µM / inhibition at 10 µM / inhibition at 0.1 µM: Homo sapiens, 72 hours. The protocol:
Take cells in logarithmic growth phase for experiments. Digest and count the cells, then make them into a cell suspension in 1×10^5 cells/mL, next seed the cell suspension in a 96-hole plate (100 μL per hole), then place the plate in a 5% CO2 incubator at 37° C. to be incubated for 24 hours. Add a subject with a corresponding concentration into each hole, and concurrently set up a negative control group and a blank group, each of which has 3 holes. After having placed the plate in the incubator for 72 hours, observe the morphologies of cells in each group under a microscope, then add a 10 μL CCK8 solution to each hole, and continue incubating the cells in the incubator for 4 h. Measure the absorbance value at 450 nm, and calculate the inhibition rate of cell proliferation; if P<0.05, the results have statistical significance.

In assay [7] the test system is SGC7901. Nature of the assay: CCK-8 anti-tumor activity, IC50. The format is cell-based, human. Conditions: for IC50: Homo sapiens, SGC-7901, SGC7901, 72 hours. Here is the method:
as §1

For assay [8], the system named is MCF-7. Description: CCK-8 anti-tumor activity, IC50. The format is cell-based, human. Conditions: for IC50: Homo sapiens, MCF7, MCF-7, 72 hours. The protocol:
as §1

The mark [9] stands for this setting: read-out: IC50 value against the Hela cells.

One may read the IC50 as the concentration needed to halve the response being measured. By inhibition is commonly meant the relative decrease from the control value, in per cent. Low values mean little suppression, high ones strong suppression.

Like-named read-outs stand apart in the source and are kept apart here.

On to `COc1ccc(CCc2cc(OC)c(OC)c(OC)c2)cc1OC(=O)C(Cl)Cl` [7a, 2-methoxy-5-(3,4,5-trimethoxyphenylethyl) phenyl 2,2-dichloroacetate], for which the IC50 in assay [1] was determined as 726 nM; in assay [2] (72 hours, read-out: IC50) it was 516 nM; in assay [2] (setting [9]), 516 nM; in assay [3] (72 hours, read-out: IC50), 48.9 nM; in assay [3] (read-out: IC50 value against the HepG2 cells), 48.9 nM; in assay [4], 940 nM. For the same molecule, the IC50 in assay [7] stood at 469 nM; in assay [8] it was 656 nM. Besides, the “Tumor weight” value was 0.569 ± 0.103 g in assay [5] (50 mg/kg gavage once a day), 0.479 ± 0.100 g in assay [5] (100 mg/kg gavage once a day) and 0.314 ± 0.076 g in assay [5] (150 mg/kg gavage once a day). The “Inhibition rate(%)” value in assay [5] (50 mg/kg gavage once a day) is 62.0%; in assay [5] (100 mg/kg gavage once a day), 72.4%; in assay [5] (150 mg/kg gavage once a day) it was 86.9%. Also, the “inhibitory activity against HepG2 cells (in words)” value in assay [6] is listed as “good inhibitory activity”. Besides, at 1 µM the inhibition in assay [6] was 94.43 ± 0.89%. This molecule registered an inhibition at 10 µM in assay [6] of 89.3 ± 1.5%.
As to `CCOc1ccc(CCc2cc(OC)c(OC)c(OC)c2)cc1OC(=O)C(Cl)Cl` [7b], in assay [6], the “inhibitory activity against HepG2 cells (in words)” value was “better than that of erianin”, the inhibition at 0.1 µM stood at 35.7 ± 2.42%, the inhibition at 1 µM amounted to 48.4 ± 9.88% and 10 µM produced 73.7 ± 4.7% inhibition.
In the case of `COc1ccc(CCc2cc(OC)c(OC)c(OC)c2)cc1OC(=O)CNC(=O)C(Cl)Cl` [8a, 2-methoxy-5-(3,4,5-trimethoxyphenylethyl) phenyl3-(2,2-dichloroacetamide) acetate], in assay [6], the inhibition at 0.1 µM is 18.5 ± 1.16%, the inhibition at 1 µM came to 30 ± 2.03% and 10 µM produced 45.6 ± 2.53% inhibition.
Turning to `COc1ccc(CCc2cc(OC)c(OC)c(OC)c2)cc1OC(=O)CCNC(=O)C(Cl)Cl` [8b, 2-methoxy-5-(3,4,5-trimethoxyphenyletyl) phenyl3-(2,2-dichloroacetamide) propionate], in assay [6], the inhibition at 0.1 µM came out at 37.5 ± 4.49%, at 1 µM the inhibition was 55.8 ± 4.37% and the inhibition at 10 µM stood at 74.2 ± 2.41%.
In assay [6], `COc1ccc(CCc2cc(OC)c(OC)c(OC)c2)cc1OC(=O)CCCNC(=O)C(Cl)Cl` [8c, 2-methoxy-5-(3,4,5-trimethoxyphenylethy) phenyl4-(2,2-dichloroacetamide) butyrate] gave an inhibition at 0.1 µM of 36.1 ± 11.7%, an inhibition at 1 µM of 68.7 ± 0.72% and an inhibition at 10 µM of 89.27 ± 0.66%.
For the molecule `COc1ccc(CCc2cc(OC)c(OC)c(OC)c2)cc1OC(=O)CCCCCNC(=O)C(Cl)Cl` [8d, 2-methoxy-5-(3,4,5-trimethoxyphenylethyl) phenyl6-(2,2-dichloroacetamide) hexanoate], the IC50 was 288 nM in assay [2] (72 hours, read-out: IC50); 288 nM in assay [2] (setting [9]); 135 nM in assay [3] (72 hours, read-out: IC50); 326 nM in assay [4]; 103 nM in assay [7]; 174 nM in assay [8]. The “inhibitory activity against HepG2 cells (in words)” value in assay [6] is “good inhibitory activity”. The same molecule showed an inhibition at 0.1 µM in assay [6] of 50.9 ± 4.44%. This molecule gave an inhibition at 1 µM in assay [6] of 73 ± 3.1%. Also, the inhibition at 10 µM in assay [6] is 90.6 ± 2.33%. Besides, the “inhibitory activity compared with erianin (in words)” value in assay [7] (human gastric cancer SGC7901 cell strains) and in assay [8] (human breast cancer MCF-7 cell strains) was “superior to erianin” each time.
On to `CNC(=O)c1cc(Oc2ccc(NC(=O)Nc3ccc(Cl)c(C(F)(F)F)c3)cc2)ccn1` [sorafenib, reference compound], for which, in assay [5] (50 mg/kg gavage once a day), the “Tumor weight” value is on record as 0.581 ± 0.089 g and the “Inhibition rate(%)” value was found to be 59.3%.

Source of the values: patent US20240350448A1, “DICHLOROACETIC ACID CONJUGATING DIPHENYL ETHANE COMPOUND, AND PREPARATION METHOD AND APPLICATION THEREOF” (SHANGHAI ECUSTBIOMEDICINECOMPANY LTD., priority 2021, published 2024).
